Tested on: E. coli strain W3110
Assay: Synergy assays: Biolog chemical sensitivity panels with Group IB metal, coefficient of drug interaction (CDI) from relative growth
Format: cell-based
Details: for CDI (coefficient of drug interaction), gold + biocide: Gold (μM); for CDI (coefficient of drug interaction), copper mixed with biocide: Copper (mM) section
[1] = Copper (mM), 1st of 3 copper concentrations (head line not shown), biocide concentration 2 of 4, E. coli
[2] = Copper (mM), 1st of 3 copper concentrations (head line not shown), biocide concentration 3 of 4, E. coli
[3] = Copper (mM), 1st of 3 copper concentrations (head line not shown), biocide concentration 4 of 4, E. coli
[4] = Copper (mM), 2nd of 3 copper concentrations (head line not shown), biocide concentration 1 of 4, E. coli
[5] = Copper (mM), 2nd of 3 copper concentrations (head line not shown), biocide concentration 2 of 4, E. coli
[6] = Copper (mM), 2nd of 3 copper concentrations (head line not shown), biocide concentration 3 of 4, E. coli
[7] = Copper (mM), 2nd of 3 copper concentrations (head line not shown), biocide concentration 4 of 4, E. coli
[8] = Copper (mM), 3rd of 3 copper concentrations (head line not shown), biocide concentration 1 of 4, E. coli
[9] = Copper (mM), 3rd of 3 copper concentrations (head line not shown), biocide concentration 3 of 4, E. coli
[10] = Copper (mM), 3rd of 3 copper concentrations (head line not shown), biocide concentration 4 of 4, E. coli
[11] = first of 3 gold concentrations, biocide concentration 1 of 4
[12] = first of 3 gold concentrations, biocide concentration 2 of 4
[13] = first of 3 gold concentrations, biocide concentration 3 of 4
[14] = first of 3 gold concentrations, biocide concentration 4 of 4
[15] = second of 3 gold concentrations, biocide concentration 1 of 4
[16] = second of 3 gold concentrations, biocide concentration 2 of 4
[17] = second of 3 gold concentrations, biocide concentration 3 of 4
[18] = second of 3 gold concentrations, biocide concentration 4 of 4
[19] = third of 3 gold concentrations, biocide concentration 1 of 4
[20] = third of 3 gold concentrations, biocide concentration 2 of 4
[21] = third of 3 gold concentrations, biocide concentration 3 of 4
[22] = third of 3 gold concentrations, biocide concentration 4 of 4
[23] = Silver 0.5 μM, biocide concentration 1 of 4
[24] = Silver 0.5 μM, biocide concentration 2 of 4
[25] = Silver 0.5 μM, biocide concentration 3 of 4
[26] = Silver 0.5 μM, biocide concentration 4 of 4
[27] = Silver 1.0 μM, biocide concentration 1 of 4
[28] = Silver 1.0 μM, biocide concentration 2 of 4
[29] = Silver 1.0 μM, biocide concentration 3 of 4
[30] = Silver 1.0 μM, biocide concentration 4 of 4
[31] = Silver 5.0 μM, biocide concentration 1 of 4
[32] = Silver 5.0 μM, biocide concentration 2 of 4
[33] = Silver 5.0 μM, biocide concentration 3 of 4
[34] = Silver 5.0 μM, biocide concentration 4 of 4
[35] = Copper 0.1 mM, biocide concentration 3 of 4
[36] = Copper 0.1 mM, biocide concentration 4 of 4
[37] = Copper 0.5 mM, biocide concentration 3 of 4
[38] = Copper 0.5 mM, biocide concentration 4 of 4
[39] = Copper 1.0 mM, biocide concentration 3 of 4
[40] = Copper 1.0 mM, biocide concentration 4 of 4
[41] = Gold 5 μM, biocide concentration 4 of 4, E. coli
[42] = Gold 25 μM, biocide concentration 4 of 4, E. coli
[43] = Silver 0.5 μM, 3rd of four biocide concentrations, E. coli
[44] = Silver 0.5 μM, 4th of four biocide concentrations, E. coli
[45] = Silver 1.0 μM, 3rd of four biocide concentrations, E. coli
[46] = Silver 1.0 μM, 4th of four biocide concentrations, E. coli
[47] = Silver 5.0 μM, 3rd of four biocide concentrations, E. coli
[48] = Silver 5.0 μM, 4th of four biocide concentrations, E. coli
[49] = 1st of 3 copper concentrations (value not shown), 4th of four biocide concentrations
[50] = 2nd of 3 copper concentrations (value not shown), 4th of four biocide concentrations
[51] = 3rd of 3 copper concentrations (value not shown), 4th of four biocide concentrations

SMILES: CSCCC(N)C(=O)NO (racemic) [D,L-methionine hydroxamate]
- CDI (coefficient of drug interaction) [1]: 1.19
- CDI (coefficient of drug interaction) [2]: 1.02
- CDI (coefficient of drug interaction) [3]: 0.91
- CDI (coefficient of drug interaction) [4]: 0.84
- CDI (coefficient of drug interaction) [5]: 0.95
- CDI (coefficient of drug interaction) [6]: 2.26
- CDI (coefficient of drug interaction) [7]: 3.51
- CDI (coefficient of drug interaction) [8]: 0.98
- CDI (coefficient of drug interaction) [9]: 1.51
- CDI (coefficient of drug interaction) [10]: 1.54
- CDI (coefficient of drug interaction), gold + biocide [11]: 1.08
- CDI (coefficient of drug interaction), gold + biocide [12]: 1.10
- CDI (coefficient of drug interaction), gold + biocide [13]: 1.06
- CDI (coefficient of drug interaction), gold + biocide [14]: Tox
- CDI (coefficient of drug interaction), gold + biocide [15]: 1.03
- CDI (coefficient of drug interaction), gold + biocide [16]: 1.04
- CDI (coefficient of drug interaction), gold + biocide [17]: 1.08
- CDI (coefficient of drug interaction), gold + biocide [18]: Tox
- CDI (coefficient of drug interaction), gold + biocide [19]: 0.92
- CDI (coefficient of drug interaction), gold + biocide [20]: 0.96
- CDI (coefficient of drug interaction), gold + biocide [21]: 0.93
- CDI (coefficient of drug interaction), gold + biocide [22]: Tox
- CDI [23]: 0.88
- CDI [24]: 1.04
- CDI [25]: Tox
- CDI [26]: Tox
- CDI [27]: 1.04
- CDI [28]: 0.99
- CDI [29]: Tox
- CDI [30]: Tox
- CDI [31]: 0.71
- CDI [32]: 0.42
- CDI [33]: Tox
- CDI [34]: Tox

SMILES: NC(CO)C(=O)NO (racemic) [D,L-serine hydroxamate]
- CDI (coefficient of drug interaction) (Copper (mM), 1st of 3 copper concentrations (head line not shown), biocide concentration 1 of 4, E. coli): 0.98
- CDI (coefficient of drug interaction) [1]: 0.94
- CDI (coefficient of drug interaction) [2]: 1.13
- CDI (coefficient of drug interaction) [3]: Tox
- CDI (coefficient of drug interaction) [4]: 0.77
- CDI (coefficient of drug interaction) [5]: 0.78
- CDI (coefficient of drug interaction) [6]: 1.03
- CDI (coefficient of drug interaction) [7]: 3.47
- CDI (coefficient of drug interaction) [8]: 0.62
- CDI (coefficient of drug interaction) (Copper (mM), 3rd of 3 copper concentrations (head line not shown), biocide concentration 2 of 4, E. coli): 0.66
- CDI (coefficient of drug interaction) [9]: 1.18
- CDI (coefficient of drug interaction) [10]: Tox
- CDI (coefficient of drug interaction), gold + biocide [11]: 1.04
- CDI (coefficient of drug interaction), gold + biocide [12]: 0.95
- CDI (coefficient of drug interaction), gold + biocide [13]: 1.45
- CDI (coefficient of drug interaction), gold + biocide [14]: 0.71
- CDI (coefficient of drug interaction), gold + biocide [15]: 1.02
- CDI (coefficient of drug interaction), gold + biocide [16]: 1.00
- CDI (coefficient of drug interaction), gold + biocide [17]: 1.22
- CDI (coefficient of drug interaction), gold + biocide [18]: Tox
- CDI (coefficient of drug interaction), gold + biocide [19]: 0.96
- CDI (coefficient of drug interaction), gold + biocide [20]: 0.94
- CDI (coefficient of drug interaction), gold + biocide [21]: 1.00
- CDI (coefficient of drug interaction), gold + biocide [22]: Tox
- CDI [23]: 0.90
- CDI [24]: 0.66
- CDI [25]: 0.31
- CDI [26]: Tox
- CDI [27]: 0.89
- CDI [28]: 0.77
- CDI [29]: 0.62
- CDI [30]: Tox
- CDI [31]: 0.82
- CDI [32]: 0.61
- CDI [33]: 0.53
- CDI [34]: Tox

SMILES: c1cnc2c(c1)ccc1cccnc12 [1,10-phenanthroline]
- CDI [35]: Tox
- CDI [36]: Tox
- CDI [37]: Tox
- CDI [38]: Tox
- CDI [39]: Tox
- CDI [40]: Tox
- CDI (coefficient of drug interaction) [41]: Tox
- CDI (coefficient of drug interaction) [42]: Tox
- CDI (coefficient of drug interaction) (Gold 50 μM, biocide concentration 4 of 4, E. coli): Tox
- CDI (coefficient of drug interaction), silver + biocide [43]: Tox
- CDI (coefficient of drug interaction), silver + biocide [44]: Tox
- CDI (coefficient of drug interaction), silver + biocide [45]: Tox
- CDI (coefficient of drug interaction), silver + biocide [46]: Tox
- CDI (coefficient of drug interaction), silver + biocide [47]: Tox
- CDI (coefficient of drug interaction), silver + biocide [48]: Tox

SMILES: O=[N+]([O-])c1ccc(Cl)c([N+](=O)[O-])c1 [1-chloro-2,4-dinitrobenzene]
- CDI (coefficient of drug interaction), copper mixed with biocide [49]: Tox
- CDI (coefficient of drug interaction), copper mixed with biocide [50]: Tox
- CDI (coefficient of drug interaction), copper mixed with biocide [51]: Tox

SMILES: c1ccc(-c2ccccn2)nc1 [2,2′-dipyridyl]
- CDI (Copper 0.1 mM, biocide concentration 1 of 4): 0.76
- CDI (Copper 0.1 mM, biocide concentration 2 of 4): Tox
- CDI [35]: Tox
- CDI [36]: Tox
- CDI (Copper 0.5 mM, biocide concentration 1 of 4): 0.61
- CDI (Copper 0.5 mM, biocide concentration 2 of 4): Tox
- CDI [37]: Tox
- CDI [38]: Tox
- CDI (Copper 1.0 mM, biocide concentration 1 of 4): 0.76
- CDI (Copper 1.0 mM, biocide concentration 2 of 4): Tox
- CDI [39]: Tox
- CDI [40]: Tox
- CDI (coefficient of drug interaction) (Gold 5 μM, biocide concentration 2 of 4, E. coli): Tox
- CDI (coefficient of drug interaction) (Gold 5 μM, biocide concentration 3 of 4, E. coli): Tox
- CDI (coefficient of drug interaction) [41]: Tox
- CDI (coefficient of drug interaction) (Gold 25 μM, biocide concentration 1 of 4, E. coli): 1.09
- CDI (coefficient of drug interaction) (Gold 25 μM, biocide concentration 2 of 4, E. coli): Tox
- CDI (coefficient of drug interaction) (Gold 25 μM, biocide concentration 3 of 4, E. coli): Tox
- CDI (coefficient of drug interaction) [42]: Tox
- CDI (coefficient of drug interaction), silver + biocide (Silver 0.5 μM, 1st of four biocide concentrations, E. coli): 1.55
- CDI (coefficient of drug interaction), silver + biocide (Silver 0.5 μM, 2nd of four biocide concentrations, E. coli): Tox
- CDI (coefficient of drug interaction), silver + biocide [43]: Tox
- CDI (coefficient of drug interaction), silver + biocide [44]: Tox
- CDI (coefficient of drug interaction), silver + biocide (Silver 1.0 μM, 1st of four biocide concentrations, E. coli): 1.07
- CDI (coefficient of drug interaction), silver + biocide (Silver 1.0 μM, 2nd of four biocide concentrations, E. coli): Tox
- CDI (coefficient of drug interaction), silver + biocide [45]: Tox
- CDI (coefficient of drug interaction), silver + biocide [46]: Tox
- CDI (coefficient of drug interaction), silver + biocide (Silver 5.0 μM, 1st of four biocide concentrations, E. coli): 1.21
- CDI (coefficient of drug interaction), silver + biocide (Silver 5.0 μM, 2nd of four biocide concentrations, E. coli): Tox
- CDI (coefficient of drug interaction), silver + biocide [47]: Tox
- CDI (coefficient of drug interaction), silver + biocide [48]: Tox
- CDI (coefficient of drug interaction) ([…], biocide concentration 1 of 4, E. coli): 0.72
- CDI (coefficient of drug interaction) ([…], biocide concentration 2 of 4, E. coli): Tox
- CDI (coefficient of drug interaction) ([…], biocide concentration 3 of 4, E. coli): Tox
- CDI (coefficient of drug interaction) ([…], biocide concentration 4 of 4, E. coli): Tox

SMILES: CC(C)c1nc2nc(N)nc(N)c2nc1C(C)C [2,4-Diamino-6,7-diisopropylpteridine]
- CDI (coefficient of drug interaction), copper mixed with biocide [49]: Tox
- CDI (coefficient of drug interaction), copper mixed with biocide [50]: Tox
- CDI (coefficient of drug interaction), copper mixed with biocide [51]: Tox
- CDI (coefficient of drug interaction) (Gold section of Table 5, first of three gold concentrations (μM, value not given), biocide concentration 4 of 4): Tox
- CDI (coefficient of drug interaction) (Gold section of Table 5, second of three gold concentrations (μM, value not given), biocide concentration 4 of 4): Tox
- CDI (coefficient of drug interaction) (Gold section of Table 5, third of three gold concentrations (μM, value not given), biocide concentration 4 of 4): Tox
- CDI (coefficient of drug interaction), silver + biocide [44]: Tox
- CDI (coefficient of drug interaction), silver + biocide [46]: Tox
- CDI (coefficient of drug interaction), silver + biocide [48]: Tox
